This note sets out measurements from US11365415B2, “Use of miR-223-3p as a cancer therapeutic and method for treating cancer using the same” (University of Florida Research Foundation, Inc., priority 2016, dated 2022).

Type in all cases: cell-based
The subject of data set [1] is other DNA repair components as well as PARP1. Put plainly: Western blot of DNA repair components after miR223-3p mimic. The conditions noted are these: MDA MB 436, HCC1937 and H2452 cells, 48 hours after transfection, vs scr control. The method, then:
(§1) Cell Culture, miRNA transfection and Survival Assay. The BRCA1-deficient MDA-MB-436 breast cancer cells were cultured in DMEM supplemented with 10% FBS and 1% penicillin and streptomycin. BRRCA1-deficient UWB1.289 ovarian cancer cells were cultured and maintained in 50% MEBM medium with growth factors and 50% RPMI medium supplemented with 3% FBS and 1% penicillin and streptomycin. BAP1-mutant H2452 mesothelioma cells were cultured in RPMI 1640 medium supplemented with 10% fetal bovine serum and 1% penicillin and streptomycin. 25 nm of mirVana miR223-3p mimic from Ambion life technologies (Cat #4464067) was used to deplete PARP1 protein in these cell lines. Mir223-3p was encapsulated into the lipid transfection complex, RNAiMAX. 25 nm of mir223-3p was incubated in 500 µL Opti-MEM plus 6 ul of RNAiMAX for 20 mins at room temperature, and then added to the cells for a final volume of 1 ml. After 48 hours, the cells were trypsinized, counted and plated in 6 well plates at a density of 4000 cells per well, in triplicates. After 14 days of incubation, colonies were stained with 0.1% crystal violet in methanol and counted using Image J software. PARP1 repression by mir223-3p was shown by western blot. PARP1 antibody was purchased from Cell Signaling (46D11). FIG. 44 illustrates the depletion of other DNA repair components in addition to PARP1.
Background: In western blotting, separated proteins are transferred to a membrane and probed.

The next data set has as its system PARP1 3′ UTR mRNA. As to the kind of experiment: Luciferase assay for stability of PARP1 3′ UTR mRNA in A549 cells. The conditions noted are these: normalized against Renilla luciferase. As for the experimental part: A549 cells were transfected with miR-223-3p mimic using RNAiMAX as above. After 6 hours, these cells were transfected with PARP 3′UTR plasmid fused with dual luciferase reporter from GeneCopoeia using Lipofectamine 2000. 48 hours post-transfection, cells were collected and assessed for luciferase activity using Luc-Pair Dual Luciferase assay kit from GeneCopoeia. The firefly luciferase activity is normalized against Renilla luciferase, which serves as a transfection control.
Luciferase assay for assessing stability of PARP1 3′ UTR mRNA. A549 cells were transfected with miR223-3p mimic using RNAiMAX as above. After 6 hours, these cells were transfected with PARP 3′UTR plasmid fused with dual luciferase reporter from GeneCopoeia using Lipofectamine 2000. 48 hours post-transfection, cells were collected and assessed for luciferase activity using Luc-Pair Dual Luciferase assay kit from GeneCopoeia. The firefly luciferase activity is normalized against Renilla luciferase, which serves as a transfection control.

The test system of another data set is aNHEJ. As to the kind of experiment: Alternative non-homologous end joining (aNHEJ) assay in EJ2-GFP U2OS cells. The conditions noted are these: prior exposure to miR-223-3p, I-SceI expression. The method, then:
PARP1 is involved in the initial step in aNHEJ DNA double strand break repair. If PARP1 is repressed, then aNHEJ is decreased. The EJ2-GFP U2OS system was used to assess aNHEJ. This reporter system contains single, integrated copy of reporter with I-SceI target sites. These sites were cleaved upon transfection of an I-SceI expression vector. Cells were transfected with miR-223 3p mimic using RNAiMAX. 24 hours after transfection, the cells were transfected with I-SceI vector using polyethylenimine (PEI). After 72 hours, EJ2 cells were trypsinized, washed with PBS and GFP-positive cells were measured using FACSort (Becton-Dickinson, San Jose, Calif.). The GFP positive cells are proportional to the aNHEJ frequency.
Alternative Non-Homologous End Joining (aNHEJ) assay. PARP1 is the initial step in aNHEJ DNA double strand break repair. If PARP1 is repressed, then aNHEJ will be decreased. The EJ2-GFP U2OS system was used to assess aNHEJ. This reporter system contains single, integrated copy of reporter with I-SceI target sites. These sites were cleaved upon transfection of an I-SceI expression vector. Cells were transfected with miR223 3p mimic using RNAiMAX. […] After 72 hours, EJ2 cells were trypsinized, washed with PBS and GFP-positive cells were measured using FACSort (Becton-Dickinson, San Jose, Calif.). […]

The test system of data set [2] is MDA-MB-436 (breast cancer) cells, deficient in BRCA1. Put plainly: Colony formation survival assay, MDA-MB-436. The conditions noted are these: MDA-MB-436, 25 nm miR-223-3p mimic, colonies counted after 14 days. As for the experimental part: (§2) Colony formation assays measures the ability of a single cell to not only survive, but also to proliferate. Thus, it is an indirect measurement of cancer stem cell activity, the ability of a single cell to give rise to a host of progeny. The BRCA1-deficient MDA-MB-436 breast cancer cells were cultured in DMEM supplemented with 10% FBS and 1% penicillin and streptomycin. BRRCA1-deficient UWB1.289 ovarian cancer cells were cultured and maintained in 50% MEBM medium with growth factors and 50% RPMI medium supplemented with 3% FBS and 1% penicillin and streptomycin. 25 nm of mirVana miR-223 3p mimic from Ambion life technologies (Cat #4464067) was used to deplete PARP1 protein in these cell lines. Mir223-3p was encapsulated into the lipid transfection complex, RNAiMAX. […] After 48 hours, the cells were trypsinized, counted and plated in 6 well plates at a density of 4000 cells per well, in triplicates. After 14 days of incubation, colonies were stained with 0.1% crystal violet in methanol and counted using Image J software. […]
(§3) Cell Culture, miRNA transfection and Survival Assay. […] After 48 hours, the cells were trypsinized, counted and plated in 6 well plates at a density of 4000 cells per well, in triplicates. After 14 days of incubation, colonies were stained with 0.1% crystal violet in methanol and counted using Image J software. […]

Data set [3] has as its system UWB1.289 (ovarian cancer) cells, deficient in BRCA1. Put plainly: Colony formation survival assay, UWB1.289. The conditions noted are these: UWB1.289, 25 nm miR-223-3p mimic, colonies counted after 14 days. As for the experimental part: as §2, §3
Data set [4] relates to MDA-MB-436 BRCA mutant cells. Put plainly: Active replication forks analysis (BrdU foci), MDA-MB-436. The conditions noted are these: 72 hours after miRNA transfection, BrdU 30 minutes. The method, then: Active Replication Forks Analysis. Active Replication forks after miR223-3p mimic transfection were measured using immunofluorescent detection of BrdU foci after DNA denaturation. Briefly, 72 hours after transfection, cells were released into fresh media containing 10 uM BrdU (BD Biosciences, Franklin Lakes, N.J.) for 30 min. After washing, cells on coverslip were fixed and the DNA denatured using hydrochloric acid for BrdU immunostaining. The coverslips were processed for immunostaining using BrdU-specific antibody (Cell Signaling, Danvers, Mass.) and then incubated with a secondary antibody conjugated with Alexa Fluor dye from Invitrogen for 1 h. Cells were analyzed as above using the laser scanning confocal microscope. At least five hundred cells were counted for each condition from at least six distinct slides per condition for statistical analysis.

For the next data set, the system named is PARP1. As to the kind of experiment: Western analysis of PARP1 after exposure to miR-223-3p mimic. The conditions noted are these: for PARP1 protein expression (Western): breast and ovarian cell lines harboring BRCA1 mutant (MDA-MB-436, UWB1.289); for PARP1 repression/knockdown (Western): cell line not given, 25 nM mimic in FIG. 33. The method, then:
Colony formation assays measures the ability of a single cell to not only survive, but also to proliferate. Thus, it is an indirect measurement of cancer stem cell activity, the ability of a single cell to give rise to a host of progeny. The BRCA1-deficient MDA-MB-436 breast cancer cells were cultured in DMEM supplemented with 10% FBS and 1% penicillin and streptomycin. BRRCA1-deficient UWB1.289 ovarian cancer cells were cultured and maintained in 50% MEBM medium with growth factors and 50% RPMI medium supplemented with 3% FBS and 1% penicillin and streptomycin. 25 nm of mirVana miR-223 3p mimic from Ambion life technologies (Cat #4464067) was used to deplete PARP1 protein in these cell lines. Mir223-3p was encapsulated into the lipid transfection complex, RNAiMAX. 25 nm of miR-223-3p was incubated in 500 μL Opti-MEM plus 6 μl of RNAiMAX for 20 mins at room temperature and then added to the cells for a final volume of 1 ml. After 48 hours, the cells were trypsinized, counted and plated in 6 well plates at a density of 4000 cells per well, in triplicates. After 14 days of incubation, colonies were stained with 0.1% crystal violet in methanol and counted using Image J software. PARP1 repression by miR-223-3p was shown by western blot. PARP1 antibody was purchased from Cell Signaling (46D11).
as §1

The subject of data set [5] is Human Mesothelioma cells (H-Meso 01A). As to the kind of experiment: Colony formation of BAP1 mutant human mesothelioma cells treated with olaparib. The conditions noted are these: 3 olaparib, 10 days continuous. The method, then: These cells were treated with the PARP inhibitor, olaparib. Human Mesothelioma cells (H-Meso 01A) were cultured in RPMI media supplemented with 10% FBS and 1% Penicillin/Streptomycin. These cells were seeded in a 6-well plate at a density of 4000 cells/well and allowed to grow for 18 hours. Of the six wells, three wells were treated with […] (LC laboratories, Cat #0-9201) each and the other three wells were considered as controls. The cells were allowed to grow for 10 days. Olaparib stayed on the cells throughout the experiment. After 10 days of incubation, colonies were stained with 0.1% crystal violet in methanol and counted using Image J software. Olaparib killed at least 80-90% of the cells. The experiment was done three times, each in triplicates and the average from all three times was calculated (FIG. 24).

For data set [6], the system named is endogenous miR-223-3p in HL60 cells. Put plainly: qRT-PCR of endogenous miR-223-3p in HL60 cells after Ara-C. The conditions noted are these: 50 μM Ara-C, different time points. The method, then:
Quantitative real time PCR (qRT-PCR) measuring endogenous miR-223 If miR-223-3p is a physiologic regulator of PARP1 expression, then its expression should be repressed after DNA damage, when higher levels of PARP1 are required to repair this damage. Mir223-3p is most highly expressed in hematopoietic cells, such as the HL60 cell line. HL60 cells were treated with 50 μM cytarabine (Ara-C) for lhr, 4 hr, 8 hr, 12 hr and 24 hr. Western blot analysis was performed to examine PARP1 protein levels in these samples. For measuring levels of miR-223-3p, cells were collected at the above time points, RNA isolated using the Qiagen RNeasy kit. cDNA conversion was then performed using first-strand cDNA synthesis kit for miRNA from Origene (HP100042). qRT-PCR for miR-223 3p was performed on a 7900HT Fast Real-Time PCR system (ABI) according to Origene protocol and ACT values were calculated. […]
Quantitative Real Time PCR (qRT-PCR) Measuring Endogenous miR223-3p. […] For measuring levels of miR223-3p, cells were collected at the above time points, RNA isolated using the Qiagen RNeasy kit. cDNA conversion was then performed using first-strand cDNA synthesis kit for miRNA from Origene (HP100042). qRT-PCR for miR223 3p was performed on a 7900HT Fast Real-Time PCR system (ABI) according to Origene protocol and ΔCT values were calculated. […]
A general note: Quantitative PCR measures a nucleic acid by following its amplification.

For “miR-223-3p: mirVana miR-223 3p mimic from Ambion life technologies (Cat #4464067); miR-223-3p is SEQ ID NO: 75; transfected with RNAiMAX (UGUCAGUUUGUCAAAUACCCCA; listed as RNA, chemistry not given here) [mirVana miR-223 3p mimic from Ambion life technologies (Cat #4464067); transfected with RNAiMAX]”, the “depletion of DNA repair components (Western)” value in [1] is given as “depletes other DNA repair components as well as PARP1”. Moreover, the “Luciferase expression (PARP1 3′ UTR linked to Firefly Luciferase)” value in the data set on PARP1 3′ UTR mRNA is given as “decreased”; in the data set with PARP1 3′ UTR mRNA (listed as miR223-3p mimic), “inhibition of PARP1”. The “fraction of EJ2 cells with productive aNHEJ (GFP positive cells)” value with aNHEJ is “decreased”. Besides, the number of colonies entry in data set [2] and in data set [3] was “decreased number of colonies” in each case. In addition, the “active replication forks (BrdU)” value in data set [4] was “decreases active replication forks”. The “PARP1 knockdown (Western)” value with PARP1 (BAP1 mutant mesothelioma) and in the data set with PARP1 (EJ2-GFP cell reporter system) was “knockdown of PARP1” each time. Further, the “PARP1 protein expression (Western)” value with PARP1 is given as “represses PARP1 protein expression”; in the data set on PARP1 (listed as mir223 mimic), “knockdown of PARP1”. In addition, the “PARP1 repression/knockdown (Western)” value was “Knockdown of PARP1” in the data set with PARP1 and “repression of PARP1” with PARP1 (listed as miR223 mimic).
On to `O=C(c1cc(Cc2n[nH]c(=O)c3ccccc23)ccc1F)N1CCN(C(=O)C2CC2)CC1` [Olaparib, olaparib], for which the “cells killed (colony formation)” value in data set [5] is listed as 80-90%.
`Nc1ccn([C@@H]2O[C@H](CO)[C@@H](O)[C@@H]2O)c(=O)n1` [Ara-C, cytarabine]: in data set [6], the “levels of endogenous miR-223-3p (qRT-PCR)” value is “gradual decrease”.
